Measured values as given in ChEMBL document CHEMBL4477203 (J Med Chem, 2016).

What was measured:
Assay type in all cases: cell-based
[1] = biological target: T1, Neuropeptide Y receptor type 4 (Homo sapiens, UniProt P50391); experiment: Displacement of [3H](2R,7R)-10 from human NPY Y4 receptor expressed in CHO cells co-expressing Gqi5-mtAEQ after 90 mins in presence of L-15 medium by liquid scintillation counting
[2] = biological target: T1, Neuropeptide Y receptor type 4; experiment: Displacement of [3H]18 from human NPY Y4 receptor expressed in CHO cells co-expressing Gqi5-mtAEQ after 90 mins by liquid scintillation counting
[3] = biological target: T1, Neuropeptide Y receptor type 4; experiment: Binding affinity to human NPY Y4 receptor expressed in CHO cells co-expressing Gqi5-mtAEQ after 90 mins in presence of sodium-free HEPES buffer by liquid scintillation counting
[4] = biological target: T1, Neuropeptide Y receptor type 4; experiment: Binding affinity to human NPY Y4 receptor expressed in CHO cells co-expressing Gqi5-mtAEQ after 90 mins in presence of L-15 medium by liquid scintillation counting

T1 sequence (P50391 whole entry): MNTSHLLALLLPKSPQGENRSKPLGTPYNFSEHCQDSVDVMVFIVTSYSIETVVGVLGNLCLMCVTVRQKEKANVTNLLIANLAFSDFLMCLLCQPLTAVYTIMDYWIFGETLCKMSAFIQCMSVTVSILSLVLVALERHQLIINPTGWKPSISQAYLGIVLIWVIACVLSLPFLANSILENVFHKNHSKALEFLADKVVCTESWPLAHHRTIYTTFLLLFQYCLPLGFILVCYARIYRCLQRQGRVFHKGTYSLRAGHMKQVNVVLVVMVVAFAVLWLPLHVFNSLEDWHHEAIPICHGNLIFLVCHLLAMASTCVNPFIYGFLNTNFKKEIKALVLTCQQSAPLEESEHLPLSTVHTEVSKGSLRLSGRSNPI

Kd [3]	Kd [4]	SMILES	Ki [1]	Ki [2]
–	–	NCCN(CCNC(=O)c1ccc(C(=O)NCCOCCOCCNC(=O)/N=C(/N)NCCC[C@@H](NC(=O)C(c2ccccc2)c2ccccc2)C(=O)NCc2ccc(O)cc2)cc1)CCNC(=O)c1ccc(C(=O)NCCOCCOCCNC(=O)/N=C(/N)NCCC[C@@H](NC(=O)C(c2ccccc2)c2ccccc2)C(=O)NCc2ccc(O)cc2)cc1	0.15 µM	0.63 µM
0.00067 µM	0.0098 µM	[3H]CC([3H])C(=O)N[C@@H](CCCC[C@H](N)C(=O)N[C@@H](Cc1ccc(O)cc1)C(=O)N[C@@H](CCCNC(=N)N)C(=O)N[C@@H](CC(C)C)C(=O)N[C@@H](CCCNC(=N)N)C(=O)N[C@@H](Cc1ccc(O)cc1)C(N)=O)C(=O)N[C@@H](Cc1ccc(O)cc1)C(=O)N[C@@H](CCCNC(=N)N)C(=O)N[C@@H](CC(C)C)C(=O)N[C@@H](CCCNC(=N)N)C(=O)N[C@@H](Cc1ccc(O)cc1)C(N)=O (some centres undefined)	–	–
